The source made the active and inactive calls.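 The calls were made as follows: active = compounds giving half or more protection of infected cells from virus-caused growth loss, again on retest; inactive = the rest.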 Where a SMILES comes first, the peptide text is derived from it. The star is where a group is joined. Fmoc = O=C(OCC1c2ccccc2-c2ccccc21)*; Boc = CC(C)(C)OC(=O)*
System: CEM cells HIV-1 protection, formazan growth assay
Experiment: NCI AIDS Antiviral Assay
Conditions: for IC50: measured here: growth of uninfected CEM cells
In short: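 Human CEM cells, uninfected and HIV-1-infected, received five drug concentrations, and growth was read by soluble formazan assay. Compounds giving at least 50% protection were retested; reproducible 100% protection defined confirmed active.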

Structure (SMILES) | EC50 [µM] | IC50 [µM] | outcome
O=C(CCC1C(=O)NC(=S)NC1=O)c1ccc2ccccc2c1 | > 110 | > 110 | 
CCCCC1(OC(=O)CCC(=O)O)CCC2(CCC(C)C(C/C=C(C)/C=C/C(O)C(C)/C=C/C(=O)O)O2)OC1CC/C(C)=C/C(=O)O (centres undefined) | > 3.8 | 1.29 | 
CC1C(Cl)(Cl)C1(C)/C=C/C1C(C)(C)C1(Cl)Cl (centres undefined) | > 200 | 91.2 | 
C/C=C(/C1CC2c3[nH]c4ccccc4c3CCN2C(=O)C1C(=O)OCC)[Si](C)(C)C (centres undefined) | > 8.91 | > 8.91 | 
COC(=O)C1CCCC2(C1)OCCO2 (centres undefined) | > 251 | > 251 | 
CCOC(=O)C1=C(C)N(Cc2ccccc2)C(C)=C(C(=O)OCC)C1c1ccccc1O | > 16.6 | > 16.6 | 
CNC(=O)c1ccc(C(=O)NCCCCCN(O)C(=O)CCC(=O)NCCCCCN(O)C(=O)CCC(=O)NCCCCCN(O)C(C)=O)c(O)c1O | > 100 | 69.2 | 
Cc1ccc2c(c1)NC(=S)N=S2(C)=O (centres undefined) | > 158 | 93.3 | 
O=c1[nH]nc(-c2ccccc2)n1/N=C\c1ccccc1 | > 200 | > 200 | 
Cc1cc(N(CCC#N)CCC#N)ccc1/C=C1/N=C(c2ccccc2)N(N)C1=O | > 63.1 | 42.7 | 
COc1ccc(N2C(=O)CC(c3c[nH]c4ccccc34)C2=O)cc1 (centres undefined) | > 200 | 182 | 
Cc1cc(C)nc(NS(=O)(=O)c2ccc(NC(=O)c3cccc4c(N)c5ccccc5nc34)cc2)n1 | > 44.7 | > 44.7 | 
COc1ccc(/C=C/c2cc(OC)c(OC)c(OC)c2)cc1O | > 10 | 0.145 | 
Cc1oc2nc(N(C)C)nc(Cl)c2c1C |  |  | inactive
CC(C)=C1C(=O)C[C@@]2(C)C[C@H]3OC3(C)CC/C=C(/C)CCC12 (some centres undefined) |  |  | inactive
CNC(=O)OCc1c(COC(=O)NC)c2n(c1C)-c1ccc(OC)cc1CCC2 | > 123 | 2.14 | 
Cc1ccc(/C(=C\C(=O)C(=O)NC23CC4CC(CC(C4)C2)C3)Sc2ccccc2)cc1 | > 200 | 117 | 
O=S(Cc1ccccc1)/C(=C/n1c(=S)[nH]c2ccccc21)c1ccccc1 (centres undefined) | > 200 | > 200 | 
CC1=C(C(=O)NNC(=O)Cc2ccccc2)CC(C(=O)NNC(=O)Cc2ccccc2)=C(C)N1 | > 200 | 36.3 | 
O=c1c(Cl)c(N2CCCCC2)cnn1-c1ccccc1 | > 174 | > 174 | 
Cc1ccc(-n2cc(-c3ccc(Cl)cc3)c3c(N/N=C4\SCC(=O)N4C)ncnc32)cc1 | > 200 | 8.32 | 
CN(C)c1n2c3ccc([N+](=O)[O-])cc3n3c(N(C)C)[n+]4ccccc4c3c2c2cccc[n+]12 | > 200 | 89.1 | 

Structure (SMILES) | EC50 [µM] | IC50 [µM] | outcome
CCC1CN2CCc3cc(OC)c(OC)cc3C2CC1CC1c2cc(OC)c(OC)cc2CCN1C(=O)C(N)Cc1ccccc1 (centres undefined) |  |  | inactive
CC(C)(c1ccc(OP2(=O)OCC3(CC=CCC3)CO2)cc1)c1ccc(OP2(=O)OCC3(CC=CCC3)CO2)cc1 (centres undefined) | > 200 | 22.9 | 
CCCc1cc(=O)oc2c3c(cc(OC(C)C)c12)O[C@H](C)[C@@H](C)[C@H]3O | > 200 | 12 | 
COCc1cn(C2CC(F)C(CO)O2)c(=O)nc1N (centres undefined) | > 457 | > 457 | 
Cn1ccnc1Sc1c([N+](=O)[O-])ncn1C | > 1050 | 7.94 | 
CCCCCCCCCCCCC1=C(OC)C(=O)c2cccnc2C1=O |  |  | inactive
Clc1c2ncccc2cc2n[nH]nc12 | > 200 | > 100 | 
CCOP(=O)(O)C1C(CO)OC(n2ccc(=O)[nH]c2=O)C1O (centres undefined) | > 200 | > 200 | 
CC1=C(C(=O)Nc2ccc([N+](=O)[O-])cc2)C(c2ccco2)C(C(=O)Nc2ccc([N+](=O)[O-])cc2)=C(C)N1 | > 19.5 | 11 | 
Cc1cc2c(C(C)C)c(O)c(O)c(C=Nc3cccc(Cl)c3)c2c(O)c1-c1c(C)cc2c(C(C)C)c(O)c(O)c(C=Nc3cccc(Cl)c3)c2c1O |  |  | inactive
Cc1ccccc1Nc1nc(NNC(=O)Cc2ccccc2)nc(NNC(=O)c2ccncc2)n1 | 155 | 407 | 
CN(C)C1C(=O)C(C(=O)NCNC(C=O)C(O)C(O)C(O)CO)=C(O)C2(O)C(=O)C3=C(O)c4c(O)cccc4C(C)(O)C3CC12 (centres undefined) | > 178 | 110 | 
Clc1ccccc1/C=C\C1(c2ccccc2)OCCO1 | > 200 | 10.5 | 
CCOC(=O)C1(C)CCCC1N (centres undefined) | > 200 | > 200 | 
COC1/C=C/OC2(C)Oc3c(C)c(O)c4c(O)c(c(/C=N/N5C(C)CN(Cc6ccccc6C#N)CC5C)c(O)c4c3C2=O)NC(=O)/C(C)=C\C=C\C(C)C(O)C(C)C(O)C(C)C(OC(C)=O)C1C (centres undefined) | > 200 | 7.41 | 
N/C(=N\N=C\c1ccc2c(c1)OCO2)N/N=C\c1ccc2c(c1)OCO2 | > 200 |  | 
C/C(CC(=O)Nc1cc(C)ccc1C)=N/N=C(N)N | > 52.5 | > 52.5 | 
OC(Nc1ccccn1)(C(F)(F)F)C(F)(F)F | > 200 | > 200 | 
CC1(C)O[C@H]2Cn3c(c(C#N)c4ccccc43)[C@H]2O1 | > 200 | 178 | 
Cn1c(=O)n2n(c1=O)C1C(=CC2)C2C=CC1n1c(=O)n(C)c(=O)n12 (centres undefined) | > 200 | > 200 | 
Sc1ccc2ccccc2c1CNC1CCCCC1 | > 200 | 28.2 | 
O=C1CC2(CCC(O)(c3ccccc3)C(C(=O)c3ccccc3)C2)C(=O)c2ccccc2N1 (centres undefined) | > 200 | > 200 | 

Structure (SMILES) | EC50 [µM] | IC50 [µM] | outcome
CCCCCN1CCN(c2ncccn2)CC1 | > 200 | > 200 | 
CCOC(=O)Nc1cc(C)c(NC(=O)CN(CC)CC)c(C)c1 | > 200 | > 200 | 
O=[N+]([O-])O.[Tb] |  |  | inactive
CC(C)(C)C(=O)/C=C/c1cccc(Oc2ccccc2)c1 | > 18.6 | > 18.6 | 
Oc1ccc(O)c(Sc2nnc(CCCCCCCCc3nnc(Sc4cc(O)ccc4O)o3)o2)c1 |  |  | inactive
CC1(C)C2CCC(CN=C(N)CSS(=O)(=O)O)C1C2 (centres undefined) | > 200 | 33.1 | 
O=c1c2c(c1=O)-c1ccccc1CN2 | > 200 | > 200 | 
COC(=O)c1cccc2c3ccccc3c3ccccc3c12 |  |  | inactive
C=CC1CN2CCC1CC2C(=O)c1ccnc2ccccc12 (centres undefined) | > 200 | 97.7 | 
CCCCCCCCCCCOCCC1C(C(C)OCCN2CCCC2)OC2OC(C)(C)OC21 (centres undefined) | > 200 | 9.12 | 
CCOC(=O)C1(C#N)C(c2ccccc2)CC(O)(c2ccc(OC)cc2)C(C(=O)c2ccc(OC)cc2)C1c1ccccc1 (centres undefined) | > 12.3 | > 12.3 | 
CN(C)P1(=O)NCC(C)(C)CO1 (centres undefined) | > 1290 | > 1290 | 
CNC(=O)NCCN1N=C(C)/C(=C\c2ccccc2)CC1=O |  |  | inactive
C=CC[C@@]12CC(C=CC13OCCO3)OC(O)[C@@H]2C (some centres undefined) | > 200 | 145 | 
CC(C)(C)OC(=O)NCCCCC(NC(=O)C(Cc1c[nH]c2ccccc12)NC(=O)OCC1c2ccccc2-c2ccccc21)C(=O)N1CCCC1C(=O)NCC(N)=O (centres undefined) (Fmoc-WK(Boc)PG-NH2; configuration not given here) | > 200 | > 200 | 
COc1ccc(-c2ccc(CC(=O)O)cc2)cc1OC | > 36.3 | > 36.3 | 
CCOC(=O)N1CCC2(CC1)C[C@](C)(C(C)=O)C(C)O2 (some centres undefined) | > 200 | > 200 | 
O=C(O)c1cccc(C(=O)O)c1-c1c(C(=O)O)cccc1C(=O)O | > 200 | > 200 | 
N#CCCSC1SC(=C2SC3=C(SCCS3)S2)SC1SCCC#N (centres undefined) | > 200 | > 200 | 
CO/C(=N\N=C(/C)C(F)(F)F)c1ccncc1 | > 200 | > 200 | 
CC(CCc1nc2ccccc2[nH]1)C1CCC2C3CC[C@@H]4C[C@H](O)CC[C@]4(C)C3CC[C@]12C (some centres undefined) | > 50.1 | > 50.1 | 
O=C(N/C(=C\c1c(O)ccc2ccccc12)c1nc2ccccc2[nH]1)c1ccccc1 | > 22.4 | > 22.4 | 

Structure (SMILES) | EC50 [µM] | IC50 [µM] | outcome
CC1NC(=O)COC1c1ccccc1 (centres undefined) | > 200 | > 200 | 
O=C(OCc1c(-c2ccccc2)nn(-c2ccccc2)c1COC(=O)Oc1ccccc1)Oc1ccccc1 | > 200 | > 200 | 
C=C(C)[C@@H]1CC[C@@H](C)C[C@H]1OC(C)=O | > 200 | > 200 | 
N#C/C(C(=O)Nc1ccc(Cl)cc1)=C(/N)N1CCCCC1 | > 200 | > 200 | 
CCOC(=O)NC(=O)c1cn(CC(=O)NCC(=O)NCC(=O)NCCCN2CCN(CCCNC(=O)CNC(=O)CNC(=O)Cn3cc(C(=O)NC(=O)OCC)c(=O)[nH]c3=O)CC2)c(=O)[nH]c1=O |  |  | inactive
O=S1(=O)CCCCO1 |  |  | inactive
CCCN(CCC)C(=S)S | > 200 | > 200 | 
O=c1cc(C(F)(F)F)c2cc3c4c(c2o1)CCCN4CCC3 | > 4.68 | > 4.68 | 
O=[N+]([O-])c1c[c]([Sb](=[O])([OH])[OH])ccc1Cl | > 200 | > 200 | 
CCC1(O)C(=O)Nc2ccc(OC)cc2C1=O (centres undefined) |  |  | inactive
CC(=O)CC(C)=O.CC(=O)CC(C)=O.CC(=O)CC(C)=O.CC(=O)CC(C)=O.[Zr] |  |  | inactive
N#C/C(N)=C(\C#N)N=C1OCC(O)C(O)C1O (centres undefined) |  |  | inactive
CC1=C(C)SC(=C2Sc3c(n(C)c(=O)[nH]c3=O)S2)S1 | > 200 | > 200 | 
OC1CCOC1(O)c1ccccn1 (centres undefined) | > 200 | > 200 | 
CCNc1nc2c(ncn2C2CC(O)C(COP(=O)(O)O)O2)c(=O)[nH]1 (centres undefined) | > 100 | > 100 | 
Cc1cc(N(CCC#N)CCC#N)ccc1C=Nc1ccc(C(=O)NN2C(=O)/C(=C/c3ccc(N(CCC#N)CCC#N)cc3)N=C2c2cc([N+](=O)[O-])ccc2Cl)cc1 | > 44.7 | > 44.7 | 
O=C(O)CSC1=NNC2(C(=O)N1)c1ccccc1-c1ccccc12 | > 200 | 58.9 | 
Cc1cccc(-c2cc(=O)c3cc(C)c(C)c(C(=O)O)c3o2)c1 |  |  | inactive
Cc1cn(C2CC(OC3CCCCO3)C(CO)O2)c(=O)[nH]c1=O (centres undefined) | > 200 | > 200 | 
